These compounds were tested on Artemia salina (assay: Toxicity against Artemia salina). Conditions: in vivo.
Assay type: organism-based
Work on `CC(=O)O[C@H]1/C(C(C)C)=C\C=C(/C)CC/C=C(\C)CC[C@@H]2O[C@]2(C)[C@H]1C(C)=O` yielded an LC50 of 110 ppm.
Work on `CC(=O)O[C@@H]1/C(C(C)C)=C\C=C(/C)CC/C=C(\C)CC[C@@H]2O[C@]2(C)[C@H]1O` [FLACCIDOXIDE] yielded an LC50 of 180 ppm.
Work on `C/C1=C\C=C(\C(C)C)[C@@H](O)C[C@]2(C)O[C@H]2CC/C(C)=C/CC1` yielded an LC50 of 50 ppm.

Reference: ChEMBL document CHEMBL1155631, “Cembrane diterpenes from the southern African soft coral Cladiella kashmani” (J Nat Prod, 2000)
